pIC50: −log10 of the molar value.
Tests used:
[1] = biological target: T1, Bifunctional dihydrofolate reductase-thymidylate synthase (Toxoplasma gondii, UniProt Q07422)
T1 sequence (Q07422 whole entry): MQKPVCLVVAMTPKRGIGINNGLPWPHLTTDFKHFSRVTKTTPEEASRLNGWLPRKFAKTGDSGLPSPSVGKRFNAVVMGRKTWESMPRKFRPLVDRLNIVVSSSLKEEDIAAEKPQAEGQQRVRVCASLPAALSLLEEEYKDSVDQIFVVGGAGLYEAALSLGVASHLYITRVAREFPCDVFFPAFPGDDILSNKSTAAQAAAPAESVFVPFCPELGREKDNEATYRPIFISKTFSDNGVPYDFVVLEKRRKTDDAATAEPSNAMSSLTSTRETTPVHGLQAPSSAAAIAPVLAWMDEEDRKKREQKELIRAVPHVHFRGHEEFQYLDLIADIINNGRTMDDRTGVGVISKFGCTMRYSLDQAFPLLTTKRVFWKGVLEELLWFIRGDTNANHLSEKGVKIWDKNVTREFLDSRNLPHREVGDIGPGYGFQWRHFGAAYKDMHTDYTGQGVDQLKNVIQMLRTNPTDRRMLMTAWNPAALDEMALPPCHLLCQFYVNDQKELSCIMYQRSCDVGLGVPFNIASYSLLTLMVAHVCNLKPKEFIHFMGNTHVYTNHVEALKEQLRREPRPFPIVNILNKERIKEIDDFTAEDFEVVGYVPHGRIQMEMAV
Description: Inhibition of Toxoplasma gondii DHFR at 37 degC by spectrophotometry

Dihydrofolate reductase [2] = biological target: T2, Dihydrofolate reductase (Pneumocystis carinii, UniProt P16184)
T2 sequence (P16184 whole entry): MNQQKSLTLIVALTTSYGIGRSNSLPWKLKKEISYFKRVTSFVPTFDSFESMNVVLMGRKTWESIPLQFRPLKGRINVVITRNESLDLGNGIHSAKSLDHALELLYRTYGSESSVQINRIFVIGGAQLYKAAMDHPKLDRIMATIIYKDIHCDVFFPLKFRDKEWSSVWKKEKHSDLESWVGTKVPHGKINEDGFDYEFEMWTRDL
Description: Inhibition of Pneumocystis carinii DHFR at 37 degC by spectrophotometry

Dihydrofolate reductase [3] = biological target: T3, Dihydrofolate reductase (Rattus norvegicus, UniProt Q920D2)
T3 sequence (Q920D2 whole entry): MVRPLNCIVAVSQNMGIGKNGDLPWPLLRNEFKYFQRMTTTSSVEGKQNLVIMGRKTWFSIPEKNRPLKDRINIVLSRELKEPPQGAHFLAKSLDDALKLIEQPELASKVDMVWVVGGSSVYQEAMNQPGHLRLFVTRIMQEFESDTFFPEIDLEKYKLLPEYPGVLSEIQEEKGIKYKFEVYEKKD
Description: Inhibition of rat liver DHFR at 37 degC by spectrophotometry

Dihydrofolate reductase [4] = biological target: T4, Dihydrofolate reductase (Mycobacterium avium, UniProt O30463)
T4 sequence (O30463 whole entry): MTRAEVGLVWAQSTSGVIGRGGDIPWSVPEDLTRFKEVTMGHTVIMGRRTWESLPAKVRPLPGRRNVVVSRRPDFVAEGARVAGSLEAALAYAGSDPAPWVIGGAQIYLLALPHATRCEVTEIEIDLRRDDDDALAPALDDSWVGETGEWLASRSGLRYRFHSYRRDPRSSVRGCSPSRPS
Description: Inhibition of Mycobacterium avium DHFR at 37 degC by spectrophotometry

Thymidylate synthase = Thymidylate synthase (Homo sapiens, UniProt P04818)
Chain of Thymidylate synthase (P04818 whole entry): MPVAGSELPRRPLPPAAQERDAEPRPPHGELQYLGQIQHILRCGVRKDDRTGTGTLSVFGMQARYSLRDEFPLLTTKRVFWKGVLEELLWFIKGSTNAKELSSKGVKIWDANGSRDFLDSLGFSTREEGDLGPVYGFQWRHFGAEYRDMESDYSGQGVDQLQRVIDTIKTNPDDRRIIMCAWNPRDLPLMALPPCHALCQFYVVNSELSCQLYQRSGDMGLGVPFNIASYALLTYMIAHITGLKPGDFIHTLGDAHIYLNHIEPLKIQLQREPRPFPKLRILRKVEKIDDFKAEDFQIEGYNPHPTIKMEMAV
Description: Inhibition of human thymidylate synthase at 30 degC under pH 7.4 by spectrophotometry

[5] = biological target: T5, Dihydrofolate reductase (Mycobacterium avium) (UniProt O30463); test: Inhibition of Mycobacterium avium DHFR at 31 uM under 37 degC by spectrophotometry
T5 sequence (whole entry): T4 sequence (O30463 whole entry)

[6] = biological target: T6, Dihydrofolate reductase (Pneumocystis carinii) (UniProt P16184); test: Inhibition of Pneumocystis carinii DHFR at 31 uM under 37 degC by spectrophotometry
T6 sequence (whole entry): T2 sequence (P16184 whole entry)

[7] = biological target: T1, Bifunctional dihydrofolate reductase-thymidylate synthase; remark: listed apart in the source
Description: Inhibition of Toxoplasma gondii DHFR at 30 degC under pH 7.4 by spectrophotometry

Dihydrofolate reductase [8] = biological target: T7, Dihydrofolate reductase (Escherichia coli, UniProt P0ABQ4)
T7 sequence (P0ABQ4 whole entry): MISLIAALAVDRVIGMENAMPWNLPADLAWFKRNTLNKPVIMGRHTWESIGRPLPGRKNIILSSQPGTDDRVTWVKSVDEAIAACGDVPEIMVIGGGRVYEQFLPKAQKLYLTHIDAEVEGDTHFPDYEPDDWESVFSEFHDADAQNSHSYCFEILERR
Description: Inhibition of Escherichia coli DHFR at 30 degC under pH 7.4 by spectrophotometry

[9] = biological target: T1, Bifunctional dihydrofolate reductase-thymidylate synthase; remark: listed apart in the source
Dihydrofolate reductase [10] = biological target: T8, Dihydrofolate reductase (Homo sapiens, UniProt P00374)
T8 sequence (P00374 whole entry): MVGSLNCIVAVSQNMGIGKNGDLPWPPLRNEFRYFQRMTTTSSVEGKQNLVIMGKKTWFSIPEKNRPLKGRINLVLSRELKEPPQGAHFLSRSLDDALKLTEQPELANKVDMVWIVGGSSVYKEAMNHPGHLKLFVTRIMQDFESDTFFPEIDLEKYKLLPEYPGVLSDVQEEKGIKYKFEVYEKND
Description: Inhibition of human DHFR at 30 degC under pH 7.4 by spectrophotometry

[11] = biological target: T6, Dihydrofolate reductase (Pneumocystis carinii); test: Inhibition of Pneumocystis carinii DHFR at 20 uM under 37 degC by spectrophotometry
[12] = biological target: T9, Dihydrofolate reductase (Rattus norvegicus) (UniProt Q920D2); test: Inhibition of rat liver DHFR at 196 uM under 37 degC by spectrophotometry
T9 sequence (whole entry): T3 sequence (Q920D2 whole entry)

[13] = biological target: T5, Dihydrofolate reductase (Mycobacterium avium); conditions: 196 uM

Compound: Cc1c(Sc2cccc3ccccc23)oc2nc(N)nc(N)c12
- pIC50 [1]: < 4.08
- pIC50 (Dihydrofolate reductase [2]): 5.07
- pIC50 (Dihydrofolate reductase [3]): < 4.08

Compound: COc1ccc(Sc2oc3nc(N)nc(N)c3c2C)cc1OC
- pIC50 (Dihydrofolate reductase [4]): 4.79
- pIC50 (Dihydrofolate reductase [2]): 4.44
- pIC50 (Dihydrofolate reductase [3]): 4.18

Compound: Cc1c(Sc2c(Cl)cccc2Cl)oc2nc(N)nc(N)c12
- pIC50 (Dihydrofolate reductase [2]): 4.22
- pIC50 (Dihydrofolate reductase [3]): 4.84

Compound: Nc1nc(N)c2c(CNc3ccc(C(=O)N[C@@H](CCC(=O)O)C(=O)O)cc3)coc2n1
- pIC50 (Thymidylate synthase): < 3.70

Compound: COc1ccc(OC)c(Sc2oc3nc(N)nc(N)c3c2C)c1
- pIC50 (Dihydrofolate reductase [4]): 4.21
- pIC50 (Dihydrofolate reductase [2]): 4.62
- pIC50 (Dihydrofolate reductase [3]): 4.37

Compound: Cc1c(Sc2c(F)c(F)c(C(F)(F)F)c(F)c2F)oc2nc(N)nc(N)c12
- inhibition [5]: 8%
- pIC50 (Dihydrofolate reductase [2]): < 4.51
- inhibition [6]: 39%
- pIC50 (Dihydrofolate reductase [3]): 4.41

Compound: COc1cccc(Sc2oc3nc(N)nc(N)c3c2C)c1
- pIC50 (Dihydrofolate reductase [4]): 4.55
- pIC50 (Dihydrofolate reductase [2]): 4.60
- pIC50 (Dihydrofolate reductase [3]): 4.29

Compound: COc1ccccc1Sc1oc2nc(N)nc(N)c2c1C
- pIC50 (Dihydrofolate reductase [4]): 4.62
- pIC50 (Dihydrofolate reductase [2]): 4.69
- pIC50 (Dihydrofolate reductase [3]): 4.25

Compound: Cc1cccc(C(C)C)c1Sc1oc2nc(N)nc(N)c2c1C
- pIC50 (Dihydrofolate reductase [2]): 4.44

Compound: CN(Cc1coc2nc(N)nc(N)c12)c1ccc(C(=O)N[C@@H](CCC(=O)O)C(=O)O)cc1 [FURO[2,3D]PYRIMIDINE ANTIFOLATE]
- pIC50 (Thymidylate synthase): < 3.70

Compound: Cc1c(Sc2ccc(C(=O)N[C@@H](CCC(=O)O)C(=O)O)cc2)oc2nc(N)nc(N)c12
- pIC50 (Dihydrofolate reductase [4]): 8.01
- pIC50 [7]: 5.66
- pIC50 [1]: 4.92
- pIC50 (Dihydrofolate reductase [8]): 7.70
- pIC50 (Dihydrofolate reductase [2]): 7.11
- pIC50 (Dihydrofolate reductase [3]): 4.69
- pIC50 [9]: 4.57
- pIC50 (Dihydrofolate reductase [10]): 5.40

Compound: Nc1nc(N)c2c(CCc3ccc(C(=O)N[C@@H](CCC(=O)O)C(=O)O)cc3)coc2n1
- pIC50 (Thymidylate synthase): < 3.70

Compound: COc1ccc(Sc2oc3nc(N)nc(N)c3c2C)cc1
- pIC50 (Dihydrofolate reductase [4]): 4.59
- pIC50 (Dihydrofolate reductase [2]): 4.46
- pIC50 (Dihydrofolate reductase [3]): 4.21

Compound: Cc1cccc(C)c1Sc1oc2nc(N)nc(N)c2c1C
- inhibition [11]: 27%
- pIC50 [1]: 4.71
- pIC50 (Dihydrofolate reductase [2]): < 4.70
- pIC50 (Dihydrofolate reductase [3]): < 3.71
- inhibition [12]: 41%
- inhibition [13]: 20%

Compound: Cc1c(Sc2ccc3ccccc3c2)oc2nc(N)nc(N)c12
- pIC50 [1]: < 4.92
- pIC50 (Dihydrofolate reductase [2]): < 4.92
- pIC50 (Dihydrofolate reductase [3]): < 4.92

Reference: ChEMBL document CHEMBL1159120, “2,4-Diamino-5-methyl-6-substituted arylthio-furo[2,3-d]pyrimidines as novel classical and nonclassical antifolates as potential dual thymidylate synthase and dihydrofolate reductase inhibitors” (Bioorg Med Chem, 2010)
